Laboratory results taken from ChEMBL document CHEMBL1146612 (Bioorg Med Chem Lett, 2003).

Experiments:
[1] = target: Histamine H1 receptor (Rattus norvegicus) (UniProt P31390); assay: Ability to displace [3H]pyrilamine from histamine H1 receptor in male Sprague-Dawley rat brain membranes at 1 ug/mL; format: tissue-based; conditions: Membrane
Histamine H3 receptor = Histamine H3 receptor (Cavia porcellus, UniProt Q9JI35); assay: Binding affinity against H3 receptor in guinea pig brain using [3H]N-alpha-methyl histamine as radioligand
Histamine H1 receptor = Histamine H1 receptor (Rattus norvegicus, UniProt P31390); assay: Ability to displace [3H]pyrilamine from histamine H1 receptor in male Sprague-Dawley rat brain membranes; format: tissue-based, Membrane
Chain of Histamine H1 receptor (P31390 whole entry): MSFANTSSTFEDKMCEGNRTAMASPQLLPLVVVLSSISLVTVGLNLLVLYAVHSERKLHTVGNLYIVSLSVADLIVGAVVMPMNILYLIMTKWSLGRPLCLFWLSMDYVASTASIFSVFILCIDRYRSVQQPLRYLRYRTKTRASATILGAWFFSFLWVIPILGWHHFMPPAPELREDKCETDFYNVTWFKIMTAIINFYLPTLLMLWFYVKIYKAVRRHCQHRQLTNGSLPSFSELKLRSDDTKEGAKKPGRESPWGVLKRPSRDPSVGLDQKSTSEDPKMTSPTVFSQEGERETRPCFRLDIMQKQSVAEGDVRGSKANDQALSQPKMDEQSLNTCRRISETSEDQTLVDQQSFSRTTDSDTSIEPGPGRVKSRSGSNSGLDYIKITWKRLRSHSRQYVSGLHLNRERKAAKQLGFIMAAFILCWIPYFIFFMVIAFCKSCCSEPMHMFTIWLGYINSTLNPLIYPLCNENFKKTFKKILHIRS

Chain of Histamine H1 receptor (Rattus norvegicus) (P31390 whole entry): as above
Chain of Histamine H3 receptor (Q9JI35 whole entry): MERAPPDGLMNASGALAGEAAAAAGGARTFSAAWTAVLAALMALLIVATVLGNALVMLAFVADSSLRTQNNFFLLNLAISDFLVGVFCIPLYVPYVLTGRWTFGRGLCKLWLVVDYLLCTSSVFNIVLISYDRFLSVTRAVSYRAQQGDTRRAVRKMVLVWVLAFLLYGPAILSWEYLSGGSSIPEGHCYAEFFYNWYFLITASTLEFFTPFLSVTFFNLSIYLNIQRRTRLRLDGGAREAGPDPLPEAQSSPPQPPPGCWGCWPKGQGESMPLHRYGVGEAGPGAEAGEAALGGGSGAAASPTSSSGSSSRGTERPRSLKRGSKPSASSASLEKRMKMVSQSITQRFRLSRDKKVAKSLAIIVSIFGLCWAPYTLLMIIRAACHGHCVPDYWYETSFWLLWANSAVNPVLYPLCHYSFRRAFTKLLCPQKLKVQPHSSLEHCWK

O=C(CC(c1ccc(Cl)cc1)c1ccccn1)NCCc1c[nH]cn1 (stereo not given)
inhibition [1]: < 50%

Clc1ccc(C(CCNCCCc2c[nH]cn2)c2ccccn2)cc1 (stereo not given)
inhibition [1]: < 50%

O=C(CCc1c[nH]cn1)NCCC(c1ccc(Cl)cc1)c1ccccn1 (stereo not given)
inhibition [1]: < 50%

CN(CCc1c[nH]cn1)C(=O)CC(c1ccc(Cl)cc1)c1ccccn1 (stereo not given)
inhibition [1]: < 50%

N=C(CC(c1ccc(Cl)cc1)c1ccccn1)NCCc1c[nH]cn1 (stereo not given)
inhibition [1]: < 50%

CN(CCCCc1c[nH]cn1)C(=O)CC(c1ccc(Cl)cc1)c1ccccn1 (stereo not given)
Ki (Histamine H3 receptor): 7 nM | inhibition [1]: < 50%

c1ccc(C(CCNCCCCc2c[nH]cn2)c2ccccn2)nc1
Ki (Histamine H3 receptor): 4 nM | inhibition [1]: < 50%

O=C(NCCCCc1cnc[nH]1)NCCC(c1ccc(Cl)cc1)c1ccccn1 (stereo not given)
Ki (Histamine H3 receptor): 23 nM | Ki (Histamine H1 receptor): 920 nM

CN(CCCCCc1c[nH]cn1)CCC(c1ccc(Cl)cc1)c1ccccn1 (stereo not given)
Ki (Histamine H3 receptor): 50 nM | Ki (Histamine H1 receptor): 6 nM

CN(CCC(c1ccc(Cl)cc1)c1ccccn1)C(=O)CCc1c[nH]cn1 (stereo not given)
inhibition [1]: < 50%

O=C(CC(c1ccc(Cl)cc1)c1ccccn1)NCCCCc1c[nH]cn1 (stereo not given)
Ki (Histamine H3 receptor): 1 nM | inhibition [1]: < 50%

Clc1ccc(C(CCNCCCCCc2cnc[nH]2)c2ccccn2)cc1 (stereo not given)
Ki (Histamine H3 receptor): 33 nM | Ki (Histamine H1 receptor): 39 nM

O=C(CC(c1ccccn1)c1ccccn1)NCCCCc1c[nH]cn1
Ki (Histamine H3 receptor): 1 nM | inhibition [1]: < 50%
